From PubChem BioAssay AID256 (DTP/NCI, 2004)
Several values for one entry are separate records, joined by “and”; a condition that tells them apart may be missing. Identical values can stand only once. Toxic doses and inconclusive results are not listed.

System: CD2F1 mice, L1210 leukemia ip, survival T/C
Test: NCI In Vivo Anticancer Drug Screen. Data for tumor model L1210 Leukemia (intraperitoneal) in CD2F1 (CDF1) mice
Conditions: higher = longer survival
Summary of the method: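 Transplantable tumor in mice; compound-treated vs vehicle-treated groups. Read-out = treated/control ratio of the measured endpoint.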

[1] = endpoint: mean survival time, dose: 100.0 mg/kg/injection, schedule: Q01DX009 (ip), vehicle: saline with Tween-80
[2] = endpoint: mean survival time, dose: 100.0 mg/kg/injection, schedule: Q04DX003 (ip), vehicle: saline with Tween-80
[3] = endpoint: mean survival time, dose: 200.0 mg/kg/injection, schedule: Q01DX009 (ip), vehicle: saline with Tween-80
[4] = endpoint: mean survival time, dose: 200.0 mg/kg/injection, schedule: Q04DX003 (ip), vehicle: saline with Tween-80
[5] = endpoint: mean survival time, dose: 400.0 mg/kg/injection, schedule: Q01DX009 (ip), vehicle: saline with Tween-80
[6] = endpoint: mean survival time, dose: 400.0 mg/kg/injection, schedule: Q04DX003 (ip), vehicle: saline with Tween-80
[7] = endpoint: mean survival time, dose: 25.0 mg/kg/injection, schedule: Q04DX003 (ip), vehicle: saline with Tween-80
[8] = endpoint: mean survival time, dose: 12.5 mg/kg/injection, schedule: Q01DX009 (ip), vehicle: saline with Tween-80
[9] = endpoint: mean survival time, dose: 25.0 mg/kg/injection, schedule: Q01DX009 (ip), vehicle: saline with Tween-80
[10] = endpoint: mean survival time, dose: 50.0 mg/kg/injection, schedule: Q01DX009 (ip), vehicle: saline with Tween-80
[11] = endpoint: mean survival time, dose: 100.0 mg/kg/injection, schedule: Q01DX009 (ip), vehicle: saline
[12] = endpoint: mean survival time, dose: 200.0 mg/kg/injection, schedule: Q01DX009 (ip), vehicle: saline
[13] = endpoint: mean survival time, dose: 100.0 mg/kg/injection, schedule: Q04DX003 (ip), vehicle: saline
[14] = endpoint: mean survival time, dose: 200.0 mg/kg/injection, schedule: Q04DX003 (ip), vehicle: saline
[15] = endpoint: mean survival time, dose: 400.0 mg/kg/injection, schedule: Q04DX003 (ip), vehicle: saline

`CN=C(NC)c1cccc(NC(=O)/C=C\c2ccc(/C=C/C(=O)Nc3cccc(C(=NC)NC)c3)cc2)c1` was tested, and the T/C (endpoint: median survival time, dose: 1.25 mg/kg/injection, schedule: Q01DX009 (ip), vehicle: saline) was 101 % of control, the T/C (endpoint: median survival time, dose: 2.5 mg/kg/injection, schedule: Q01DX009 (ip), vehicle: saline) was 107 % of control and the T/C (endpoint: median survival time, dose: 5.0 mg/kg/injection, schedule: Q01DX009 (ip), vehicle: saline) was 101 % of control.

In the case of `CC1(C)CC(=O)C2OC2(C)C1` (stereo unspecified), the T/C [1] is reported as 100 % of control, the T/C [2] is reported as 95 % of control and the T/C [3] is reported as 97 % of control. The T/C [4] was 103 % of control, the T/C [5] was 96 % of control and the T/C [6] was 97 % of control.

In the case of `CC(=O)OC1CC2C[CH]([Hg][Cl])C1C2` (stereo unspecified), the T/C (endpoint: mean survival time, dose: 6.25 mg/kg/injection, schedule: Q04DX003 (ip), vehicle: saline with Tween-80) is reported as 95 % of control, the T/C (endpoint: mean survival time, dose: 12.5 mg/kg/injection, schedule: Q04DX003 (ip), vehicle: saline with Tween-80) is reported as 111 % of control and the T/C [7] is reported as 86 % of control.

For `CC(C)(C)NCC(CN(CC(CNC(C)(C)C)C(=O)c1ccccc1)C(C)(C)C)C(=O)c1ccccc1` (stereo unspecified), the T/C (endpoint: mean survival time, dose: 12.5 mg/kg/injection, schedule: Q04DX003 (ip), vehicle: Klucel (hydroxypropylcellulose) (HPC)) was 98 % of control, the T/C (endpoint: mean survival time, dose: 25.0 mg/kg/injection, schedule: Q04DX003 (ip), vehicle: Klucel (hydroxypropylcellulose) (HPC)) was 96 % of control and the T/C (endpoint: mean survival time, dose: 50.0 mg/kg/injection, schedule: Q04DX003 (ip), vehicle: Klucel (hydroxypropylcellulose) (HPC)) was 102 % of control.

`COC(=O)C(CCCCN=Cc1ccccc1O)N=Cc1ccccc1O.[Ni]` (stereo unspecified) was tested, and the T/C [8] was 96 % of control, the T/C [9] was 96 % of control and the T/C [10] was 88 % of control and 94 % of control. For the same molecule, the T/C [1] was 93 % of control.

`CCCCc1ccc(N=C(N)N=C(N)N)cc1` was tested, and the T/C (endpoint: mean survival time, dose: 9.5 mg/kg/injection, schedule: Q01DX001 (ip), vehicle: other) was 103 % of control, the T/C (endpoint: mean survival time, dose: 19.0 mg/kg/injection, schedule: Q01DX001 (ip), vehicle: other) was 94 % of control and the T/C (endpoint: mean survival time, dose: 38.0 mg/kg/injection, schedule: Q01DX001 (ip), vehicle: other) was 91 % of control.

`Cn1c(=O)[nH]c(=O)c2cc(Cl)ccc21` was tested, and the T/C (endpoint: mean survival time, dose: 100.0 mg/kg/injection, schedule: Q04DX002 (ip), vehicle: saline with Tween-80) was 101 % of control, the T/C (endpoint: mean survival time, dose: 200.0 mg/kg/injection, schedule: Q04DX002 (ip), vehicle: saline with Tween-80) was 106 % of control and the T/C (endpoint: mean survival time, dose: 400.0 mg/kg/injection, schedule: Q04DX002 (ip), vehicle: saline with Tween-80) was 121 % of control.

For `CCCCCCCCCCCCNC(=O)c1ccc[n+](C)c1`, the T/C (endpoint: mean survival time, dose: 12.5 mg/kg/injection, schedule: Q01DX009 (ip), vehicle: saline) was 88 % of control, the T/C (endpoint: mean survival time, dose: 12.5 mg/kg/injection, schedule: Q04DX003 (ip), vehicle: saline) was 93 % of control and the T/C (endpoint: mean survival time, dose: 25.0 mg/kg/injection, schedule: Q04DX003 (ip), vehicle: saline) was 97 % of control. For the same molecule, the T/C (endpoint: mean survival time, dose: 50.0 mg/kg/injection, schedule: Q04DX003 (ip), vehicle: saline) was 101 % of control.

For `COc1cc(NCCCCCCCNC(C)C)c2nccc(C)c2c1`, the T/C (endpoint: median survival time, dose: 3.12 mg/kg/injection, schedule: Q01DX009 (ip), vehicle: saline) was 98 % of control, the T/C (endpoint: median survival time, dose: 6.25 mg/kg/injection, schedule: Q01DX009 (ip), vehicle: saline) was 102 % of control and the T/C (endpoint: median survival time, dose: 12.5 mg/kg/injection, schedule: Q01DX009 (ip), vehicle: saline) was 97 % of control.

In the case of `NC(=S)N/N=C/c1cccnc1`, the T/C (endpoint: mean survival time, dose: 50.0 mg/kg/injection, schedule: Q01DX009 (ip), vehicle: saline) is reported as 109 % of control, the T/C [11] is reported as 101 % of control and the T/C [12] is reported as 106 % of control.

With `CCN(CC)CCCC(C)(NCc1ccccc1)[P+](=O)O` (stereo unspecified) the T/C [1] was 90 % of control, the T/C [13] was 96 % of control and the T/C [3] was 86 % of control. For the same molecule, the T/C [14] was 91 % of control, the T/C [5] was 94 % of control and the T/C [15] was 94 % of control.

With `O=C(NNc1ccccc1OCc1ccccc1)C(F)(F)F` the T/C [2] was 102 % of control, the T/C [4] was 103 % of control and the T/C [6] was 103 % of control.

`COC1=C(N2CC2)C(=O)C(OC)=C(N2CC2)C1=O` was tested, and the T/C (endpoint: mean survival time, dose: 0.9 mg/kg/injection, schedule: Q01DX015 (ip), vehicle: saline) was 115 % of control, the T/C (endpoint: mean survival time, dose: 1.3 mg/kg/injection, schedule: Q01DX015 (ip), vehicle: saline) was 119 % of control and the T/C (endpoint: mean survival time, dose: 3.0 mg/kg/injection, schedule: Q01DX015 (ip), vehicle: saline) was 113 % of control.

For `CCCCC(Sc1n[nH]c(=O)[nH]c1=O)C(=O)OCC` (stereo unspecified), the T/C (endpoint: mean survival time, dose: 12.5 mg/kg/injection, schedule: Q01DX005 (ip), vehicle: distilled water + Tween-80) was 96 % of control, the T/C (endpoint: mean survival time, dose: 25.0 mg/kg/injection, schedule: Q01DX005 (ip), vehicle: distilled water + Tween-80) was 100 % of control and the T/C (endpoint: mean survival time, dose: 50.0 mg/kg/injection, schedule: Q01DX005 (ip), vehicle: distilled water + Tween-80) was 96 % of control. For the same molecule, the T/C (endpoint: mean survival time, dose: 100.0 mg/kg/injection, schedule: Q01DX005 (ip), vehicle: distilled water + Tween-80) was 103 % of control and the T/C (endpoint: mean survival time, dose: 200.0 mg/kg/injection, schedule: Q01DX005 (ip), vehicle: distilled water + Tween-80) was 97 % of control.

For `CCCCCC(C)(C#N)CCCCC`, the T/C [1] was 105 % of control and the T/C [3] was 103 % of control.

For `CCOC(=O)c1ccc(NC(=S)NC(=O)c2ccc(Cl)cc2Cl)cc1`, the T/C [2] was 100 % of control, the T/C [4] was 91 % of control and the T/C [6] was 91 % of control.

In the case of `CC#CC(=O)SCCNC(=O)CC`, the T/C [8] is reported as 101 % of control, the T/C [9] is reported as 101 % of control and the T/C [7] is reported as 112 % of control. The T/C [10] was 101 % of control, the T/C (endpoint: mean survival time, dose: 50.0 mg/kg/injection, schedule: Q04DX003 (ip), vehicle: saline with Tween-80) was 106 % of control and the T/C [2] was 86 % of control.

For `O=C(/C(=N/N=C\c1ccc([N+](=O)[O-])cc1)c1ccccc1)c1ccccc1`, the T/C [1] was 101 % of control, the T/C [11] was 109 % of control and the T/C [3] was 95 % of control. For the same molecule, the T/C [12] was 109 % of control, the T/C [5] was 95 % of control and the T/C (endpoint: mean survival time, dose: 400.0 mg/kg/injection, schedule: Q01DX009 (ip), vehicle: saline) was 104 % of control.

In the case of `CN(Cc1cnc2nc(N)nc(N)c2n1)c1c(Cl)cc(C(=O)NC(CCC(=O)O)C(=O)O)cc1Cl` (stereo unspecified), the T/C (endpoint: mean survival time, dose: 44.0 mg/kg/injection, schedule: Q01DX009 (ip), vehicle: sodium bicarbonate) is reported as 224 % of control, the T/C (endpoint: mean survival time, dose: 67.0 mg/kg/injection, schedule: Q01DX009 (ip), vehicle: sodium bicarbonate) is reported as 256 % of control and the T/C (endpoint: mean survival time, dose: 100.0 mg/kg/injection, schedule: Q01DX009 (ip), vehicle: sodium bicarbonate) is reported as 193 % of control. For the same molecule, the T/C (endpoint: mean survival time, dose: 133.0 mg/kg/injection, schedule: Q01DX009 (ip), vehicle: sodium bicarbonate) was 170 % of control, the T/C (endpoint: mean survival time, dose: 150.0 mg/kg/injection, schedule: Q01DX009 (ip), vehicle: sodium bicarbonate) was 116 % of control and the T/C (endpoint: mean survival time, dose: 160.0 mg/kg/injection, schedule: Q01DX009 (ip), vehicle: sodium bicarbonate) was 123 % of control. The T/C (endpoint: median survival time, dose: 125.0 mg/kg/injection, schedule: Q01DX009 (ip), vehicle: sodium bicarbonate) was 123 % of control and the T/C (endpoint: median survival time, dose: 150.0 mg/kg/injection, schedule: Q01DX009 (ip), vehicle: sodium bicarbonate) was 112 % of control.

For `O=C(O)CCCOc1ccc(Cl)cc1Cl`, the T/C [13] was 96 % of control, the T/C [14] was 103 % of control and the T/C [15] was 97 % of control.

With `Cc1ccc(S(=O)(=O)OC2C(O)OC3COC(c4ccccc4)OC3C2OS(=O)(=O)c2ccc(C)cc2)cc1` (stereo unspecified) the T/C (endpoint: mean survival time, dose: 100.0 mg/kg/injection, schedule: Q01DX001 (ip), vehicle: saline with Tween-80) was 94 % of control, the T/C (endpoint: mean survival time, dose: 200.0 mg/kg/injection, schedule: Q01DX001 (ip), vehicle: saline with Tween-80) was 105 % of control and the T/C (endpoint: mean survival time, dose: 400.0 mg/kg/injection, schedule: Q01DX001 (ip), vehicle: saline with Tween-80) was 94 % of control.

For `Nc1cc(C(F)(F)F)ccc1/C(=C/c1ccc(Cl)cc1)C(=O)O`, the T/C (endpoint: mean survival time, dose: 75.0 mg/kg/injection, schedule: Q04DX003 (ip), vehicle: saline) was 103 % of control and the T/C (endpoint: mean survival time, dose: 150.0 mg/kg/injection, schedule: Q04DX003 (ip), vehicle: saline) was 102 % of control.

With `CC1=CC=CNC1(N)Br` (stereo unspecified) the T/C (endpoint: mean survival time, dose: 100.0 mg/kg/injection, schedule: Q01DX001 (ip), vehicle: saline) was 100 % of control, the T/C (endpoint: mean survival time, dose: 200.0 mg/kg/injection, schedule: Q01DX001 (ip), vehicle: saline) was 104 % of control and the T/C (endpoint: mean survival time, dose: 400.0 mg/kg/injection, schedule: Q01DX001 (ip), vehicle: saline) was 100 % of control.

In the case of `OC1(c2ccccc2)c2cscc2C(O)(c2ccccc2)c2c(Cl)sc(Cl)c21` (stereo unspecified), the T/C (endpoint: mean survival time, dose: 6.25 mg/kg/injection, schedule: Q01DX001 (ip), vehicle: saline with Tween-80) is reported as 100 % of control, the T/C (endpoint: mean survival time, dose: 12.5 mg/kg/injection, schedule: Q01DX001 (ip), vehicle: saline with Tween-80) is reported as 95 % of control and the T/C (endpoint: mean survival time, dose: 25.0 mg/kg/injection, schedule: Q01DX001 (ip), vehicle: saline with Tween-80) is reported as 88 % of control.
